A short description of series [1]: Nitric oxide generation in vivo, plasma NOx after oral administration. On the set-up: species or system New Zealand White male rabbits. The following applies: 80 mg/kg orally, rabbits. As for the experimental part: (§1) New Zealand White male rabbits were given 80 mg/kg of B-NOD. B-NOD was dissolved in 2 ml DMSO, suspended in 8 ml carboxymethylcellulose (0.5%) and administered orally. Blood (1 ml) was drawn from the ear vein using heparinized syringes before and 10 minutes, 30 minutes, 1 hour, 3 hours, 5 hours, 7 hours, and 24 hours following B-NOD administration. Blood samples were centrifuged at 1200 g for 10 minutes and deproteinized by an ultrafiltration device (MPS Micropartition, Millipore Corporation, Bedford, Mass.) and centrifuged again at 2500 g for 90 minutes. Plasma NOx was measured by chemiluminescence as described above.
(§2) Heart rate and systolic and diastolic blood pressures were measured through a 22 gauge by one inch catheter inserted into the ear artery connected to a DIGI-MED™Heart Performance Analyzer 100 (Louisville, Ky.). Determination of blood pressure and heart rate were carried out prior to and 1, 3, 5 hours after B-NOD administration. FIG. 4 illustrates concentrations of NOx in plasma of animals up to 24 hours following administration of B-NOD.

A short description of series [2]: Nitric oxide generation in vitro, spontaneous release in the absence of washed platelets (chemiluminescence). The following applies: without platelets, B-NOD 10, 100 or 1000 μM. As for the experimental part:
(§3) Venous blood was collected from healthy volunteers who had not previously been taking any drugs for at least two weeks; EDTA was used as an anticoagulant. Washed platelets were prepared as described in Radomski, M. and Moncada, S. (1983) An improved method for washing of human platelets with prostacyclin. Thromb Res 83,383-389, the disclosure of which is incorporated herein by reference, with some modifications. In brief, blood was centrifuged for 10 minutes at 200 g, and the resultant platelet rich plasma was removed. It was recentrifuged at 500 g for 10 minutes. The supernatant was discarded and the pellet was resuspended in Tyrode's solution. Platelet concentration was adjusted to 2×10^8 platelets/ml using a Coulter Counter (Model ZBI, Beckman-Coulter, Fullerton, Calif.). […]
(§4) The supernatant was analyzed for nitric oxide generation by chemiluminescence. […] Chemiluminescence was measured using a reducing system consisting of a ferrocene derivative dissolved in acetonitrile containing 1% perchloric acid, as described in Termin, A., Hoffmann, M. and Bing, R. J. (1992) A simplified method for the determination of nitric oxide in biological solutions. […] Under this condition, NO2 in the injected samples was reduced to NO and detected by chemiluminescence with the NO-analyzer (270 B, Sievers Res. Inc., Boulder, Colo.). […]

A further series concerns platelet aggregation. The series can be described thus: Platelet aggregation in vitro, thrombin as agonist (nephelometric aggregometer). Format: cell-based, New Zealand rabbits. The following applies: rabbit washed platelets; B-NOD 10, 100 or 1000 μM, 10 min preincubation; thrombin 0.04 to 0.14 U/ml. The protocol: Healthy male New Zealand rabbits were anesthetized with pentobarbital (10 mg/kg iv), ketamine (40 mg/kg im), xylazine (10 mg/kg im) and atropine (0.5 mg im). They were […] and mechanically ventilated with 95% oxygen (rate 40 strokes/min, tidal volume 25 ml). The heart was exposed with a median sternotomy, blood (40 ml) was collected from the right ventricle and washed platelets were prepared as described above. Platelet aggregation was monitored by a standard nephelometric technique in which 0.5 ml of platelet suspension (2×10^8 platelets/ml) were incubated at 37° C. and stirred at 1000 rpm in an aggregometer (Model PAP-3, Bio/Data corporation, Horsham, Pa.). The antiaggregant effects of B-NOD (10, 100 or 1000 μM) were tested by incubating platelets with B-NOD at 37.8° C. before the addition of thrombin. Incubation was carried out for 10 min. Thrombin was used as an agonist at relatively low concentrations (0.04 to 0.14 U/ml) to obtain submaximal aggregation in order to evaluate the drug's inhibitory effect.

The next series has as its system washed platelets. The series is described as follows: Nitric oxide generation in vitro in the presence of washed platelets (chemiluminescence). The following applies: B-NOD 10, 100 or 1000 μM. Type of series: cell-based, human. The protocol: as §3, §4
Series [3] deals with cGMP production in platelets. The series is described as follows: Platelet cGMP in vitro (acetylation enzyme immunoassay). Type of series: cell-based. The note with it: human washed platelets; B-NOD 10, 100 or 1000 μM, 10 minutes. The protocol:
Washed platelets were prepared from human blood as described above. 400 μl aliquots were incubated in the presence of B-NOD (10, 100 or 1000 μM) or methanol for 10 minutes. Incubations were terminated by centrifugation at 1000 g and the supernatant was removed. Ice-cold phosphate buffer was added to the pellets, and the pellets were sonicated for 20 seconds. cGMP was measured using an acetylation enzyme immunoassay system (Biotrak, Piscataway, N.J.).

A short description of series [4]: Blood pressure and heart rate after oral administration. Type of series: in vivo, New Zealand White male rabbits. The following applies: 80 mg/kg orally, rabbits; one, three and five hours following administration. As for the experimental part:
as §1, §2
Several NO donors are known to cause a fall in blood pressure, particularly when administered intravenously.

Data on one molecule can be found in patent US6538033B2, “Nitric oxide donor compounds” (Huntington Medical Research Institutes, priority 2000, dated 2003).

With `O=C(Oc1cccc(CO[N+](=O)[O-])c1)c1ccccc1O` [B-NOD, 3-(nitrooxymethyl)phenyl 2-hydroxybenzoate], the “NOx concentration in plasma after 24 hours” value in series [1] (24 hours) is listed as “returned to control values”. Moreover, the “NOx concentration in plasma, course to seven hours” value in series [1] (seven hours following administration) is “plateaued for seven hours”. Further, the “NOx concentration in plasma” value in series [1] (three hours following administration (increase from 59 before administration)) turned out to be 115 µmol/L. The “NO production (NOx)” value (in series [2]; with washed platelets (with platelets)) was “increased NO production in a dose-dependent manner” throughout. In addition, the “maximal NO release” value came out at 98 µmol/L in series [2] (37° C., 10 minutes) and 156 µmol/L in the series on washed platelets (in the presence of platelets (2×10^8 platelets/ml), 10 minutes). Besides, in the series on platelet aggregation, the “inhibition of platelet aggregation as compared to the control” value is given as “approximately 25%”. In addition, the “cyclic GMP production in platelets” value in series [3] is reported as “increased cyclic GMP production in a dose-dependent manner”. In addition, the diastolic pressure entry in series [4] is “did not affect”. Besides, the heart rate result in series [4] is reported as “failed to change”. In addition, the systolic pressure entry in series [4] is recorded as “did not affect”.
